Tests used:
DPP IV = biological target: T1, DPP IV (Mus musculus, UniProt P28843); test: DPP IV inhibitory activity in vivo: DPP IV activity in plasma of ICR mouse after single oral dose; details: oral 3 mg/kg, compared with Alogliptin and Vildagliptin (LAF237), FIG. 1-6
T1 construct: from tissue; host or cells: plasma of ICR mouse
Procedure: Animals: ICR mouse (8-10 weeks old; sex: male; 25 g-30 g of body weight, purchased from Shanghai SLAC Laboratory Animal Center).
Meanwhile the solvent group was used as blank control. The blood was taken from orbital venous plexus of the mouse before administration, and 30, 60, 2 h, 4 h, 6 h, 8 h and […] after administration, respectively and loaded into Eppendorf tube (Qizhong Industrial (Shanghai) co., Ltd.) treated by anticoagulant. The plasma was obtained by centrifugation and DPP IV activity was determined.

normal ICR mouse = test: Oral glucose tolerance test (OGTT), acute hypoglycemic effect of single oral dose; assay type: in vivo
Procedure: Acute hypoglycemic effect of single dose through mouth on the normal ICR mouse
Animal: ICR mouse (8-10 weeks old, sex: male, weight: 25-30 g, purchased from Shanghai SLAC Laboratory Animal Center).
1. Two days before the experiment, the food consumption was recorded and the daily food consumption of each animal was calculated;
2. The animals fasted overnight (⅓ of daily food consumption was provided, about 2 g);
3. The blood glucose was measured on the second day.
4. The medicament was administrated through gavage (1 mouse/min). After 6 hours, the blood glucose was measured. Glucose was administrated through gavage according to the body weight (2.5 g/kg). The blood glucose value was monitored at 30 min, 60 min, 90 min, and 120 min after administration.

[1] = Safety evaluation: single dose 100 mg/kg by gavage, one week observation; assay type: in vivo, ICR mouse
Procedure: After grouping, each compound was administrated once through gavage according to the dose of 100 mg/kg at the same time.

[2] = normal ICR mouse, 100 mg/kg single dose, 7th day
[3] = normal ICR mouse, 100 mg/kg single dose, 1 d after administration
[4] = normal ICR mouse, 100 mg/kg single dose, 2 d after administration
[5] = normal ICR mouse, 100 mg/kg single dose, 3 d after administration
[6] = normal ICR mouse, 100 mg/kg single dose, 4 d after administration
[7] = normal ICR mouse, 100 mg/kg single dose, 5 d after administration
[8] = normal ICR mouse, 100 mg/kg single dose, 6 d after administration
[9] = normal ICR mouse, 100 mg/kg single dose, 7 d after administration
[10] = normal ICR mouse, 100 mg/kg single dose, before administration

T1 sequence (P28843 37-760 limits assumed): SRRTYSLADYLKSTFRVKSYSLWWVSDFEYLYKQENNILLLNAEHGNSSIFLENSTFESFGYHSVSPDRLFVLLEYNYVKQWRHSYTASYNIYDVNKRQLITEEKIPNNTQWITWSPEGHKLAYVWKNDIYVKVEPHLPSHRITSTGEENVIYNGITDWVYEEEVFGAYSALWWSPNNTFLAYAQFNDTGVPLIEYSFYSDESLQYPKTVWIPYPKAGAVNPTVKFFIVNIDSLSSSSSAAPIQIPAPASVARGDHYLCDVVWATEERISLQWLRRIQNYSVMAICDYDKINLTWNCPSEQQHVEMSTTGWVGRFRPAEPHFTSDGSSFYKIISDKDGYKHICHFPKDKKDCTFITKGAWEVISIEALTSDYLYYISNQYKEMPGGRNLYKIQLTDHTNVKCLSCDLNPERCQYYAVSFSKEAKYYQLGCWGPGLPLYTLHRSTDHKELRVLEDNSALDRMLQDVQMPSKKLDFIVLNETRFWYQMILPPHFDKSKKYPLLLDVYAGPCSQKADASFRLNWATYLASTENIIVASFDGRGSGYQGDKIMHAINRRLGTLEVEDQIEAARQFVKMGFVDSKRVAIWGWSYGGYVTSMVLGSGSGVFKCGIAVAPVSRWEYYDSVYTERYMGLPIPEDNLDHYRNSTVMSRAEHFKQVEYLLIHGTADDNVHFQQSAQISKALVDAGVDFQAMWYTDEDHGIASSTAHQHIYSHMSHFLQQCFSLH

For COC(=O)c1cc2nc(N3CCCC(N)C3)n(Cc3ccccc3C#N)c(=O)c2s1 (stereo not shown) [DC291407], the “DPP IV activity of ICR mouse plasma after single dose (given as hypoglycemic ability in vivo)” value (DPP IV) was “comparable to that of Alogliptin (3 mg), and better than that of Vildagliptin (LAF237, 15 mg)”, the “hypoglycemic ability in vivo, oral glucose tolerance test after multiple single-dose administration” value (normal ICR mouse; single administration at multiple doses, FIGS. 11-12) was “comparable to that of Alogliptin” and the “hypoglycemic ability in vivo, oral glucose tolerance test” value (normal ICR mouse; single dose 3 mg/kg by gavage, glucose 2.5 g/kg after 6 hours, FIGS. 7-10) was “comparable to that of Alogliptin”. The “effect on body weight (conclusion)” value ([1]; ICR mouse, 100 mg/kg single dose) was “possibly had no effect on body weight”, the acute toxicity ([1]; ICR mouse, 100 mg/kg single dose by gavage, one week) was “did not reflect obvious acute toxicity” and the “body weight versus normal control group (statistics)” value ([1]; ICR mouse, 100 mg/kg single dose, from second day to 7 days, 100 mg/kg) was “significant statistical difference”. For the same compound, the “kidney index versus normal control group (in words)” value ([1]; ICR mouse, 100 mg/kg, 7th day after administration) was “did not significantly differ”, the “spleen index versus normal control group (in words)” value ([1]; ICR mouse, 100 mg/kg, 7th day after administration, 100 mg/kg) was “significantly increased” and the “spleen index versus normal control group (in words)” value ([1]; ICR mouse, 100 mg/kg, 7th day after administration, listed as DC29147, 100 mg/kg) was “statistical difference”. It also gave a Kidney index [1, 2] of 1.5 ± 0.2%, a Liver index [1, 2] of 5.3 ± 0.4% and a Spleen index [1, 2] of 0.4 ± 0.0 %. It also gave a body weight [1, 3] of 30.0 ± 1.6 g, a food consumption [1, 3] of 18.4 g · day^−1 · cage^−1 and a body weight [1, 4] of 30.0 ± 1.7 g. For the same compound, the food consumption [1, 4] was 18.5 g · day^−1 · cage^−1, the body weight [1, 5] was 29.7 ± 1.9 g and the food consumption [1, 5] was 19.0 g · day^−1 · cage^−1. For the same compound, the body weight [1, 6] was 30.0 ± 1.5 g, the food consumption [1, 6] was 19.4 g · day^−1 · cage^−1 and the body weight [1, 7] was 30.5 ± 1.5 g. It also gave a food consumption [1, 7] of 22.3 g · day^−1 · cage^−1, a body weight [1, 8] of 30.4 ± 1.8 g and a food consumption [1, 8] of 22.6 g · day^−1 · cage^−1. The body weight [1, 9] was 30.6 ± 1.9 g, the food consumption [1, 9] was 23.5 g · day^−1 · cage^−1 and the body weight [1, 10] was 29.7 ± 1.8 g. For the same compound, the food consumption [1, 10] was 21.4 g · day^−1 · cage^−1.

— patent US9045491B2, “Thienyl [3,2-D] pyrimidin-4-one compounds, preparation method, pharmaceutical compositions and use thereof” (SHANGHAI INSTITUTE OF MATERIA MEDICA, CHINESE ACADEMY OF …, priority 2011, dated 2015)
